From PubChem BioAssay AID504687 (Sanford-Burnham Center for Chemical Genomics, 2011)
Calls of active or inactive are those of the source. The rule behind the calls is not given here.

biological target: Ubiquitin-conjugating enzyme E2 N (Homo sapiens) (UniProt P61088); assay: UBC13 polyubiquitin chain formation inhibitors, SAR follow-up, biochemical, TR-FRET (AID 504687)
Sequence (P61088 whole entry, looked up): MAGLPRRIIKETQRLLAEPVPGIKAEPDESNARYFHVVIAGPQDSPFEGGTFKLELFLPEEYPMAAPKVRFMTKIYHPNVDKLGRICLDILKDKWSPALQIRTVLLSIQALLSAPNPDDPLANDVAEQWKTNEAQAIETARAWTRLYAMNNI

Q: With `O=C1c2cccc3cccc(c23)C(=O)N1CC1CCN(CC(O)COCc2ccc3c(c2)OCO3)CC1` (stereo unspecified) as the molecule, how does the IC50 read?
A: 1.9 µM

Q: With `O=C(CCCCCN1C(=O)c2cccc([N+](=O)[O-])c2C1=O)NCc1ccccc1` as the molecule, how does the IC50 read?
A: 16.4 µM

Q: How did the IC50 turn out when `O=C(C1CCN(c2ncnc3c2nc2n3CCCCC2)CC1)N1CCN(c2ccccn2)CC1` was run?
A: inactive

Q: Which IC50 does the source give for `O=C(NCCCN1CCCCC1)C1CCN(c2ncnc3c2nc2n3CCCCC2)CC1` here?
A: 4.58 µM

Q: Which IC50 does the source give for `CCOc1cccc2sc(N(CCCN(C)C)C(=O)c3ccc(S(=O)(=O)N(CC)Cc4ccccc4)cc3)nc12` here?
A: 6.56 µM

Q: For `CCN(Cc1ccccc1)S(=O)(=O)c1ccc(C(=O)N(CCCN(C)C)c2nc3cc4c(cc3s2)OCCO4)cc1`, which IC50 is on record?
A: 1.51 µM

Q: With `Cc1ccc2nc(N(CCCN(C)C)C(=O)c3ccc4c(c3)CCCC4)sc2c1` as the molecule, how does the IC50 read?
A: 10.5 µM

Q: How did the IC50 turn out when `Cc1ccc(NC(=O)C2CCN(c3ncnc4c3nc3n4CCCCC3)CC2)cc1Cl` was run?
A: 3.62 µM

Q: With `CN(C)CCCN(C(=O)c1ccc(C(=O)c2ccccc2)cc1)c1nc2cc3c(cc2s1)OCCO3` as the molecule, how does the IC50 read?
A: 1.6 µM

Q: How did the IC50 turn out when `COc1cc2nc(N(CCCN(C)C)C(=O)c3ccc(S(=O)(=O)N4CCc5ccccc5C4)cc3)sc2cc1OC` was run?
A: 3.79 µM

Q: For `O=C(C1CCN(c2ncnc3c2nc2n3CCCCC2)CC1)N1CCN(c2ccccc2)CC1`, which IC50 is on record?
A: inactive

Q: For `O=C(NCCCN1CCN(c2ccc(F)cc2)CC1)C1CCCN(c2ncnc3c2nc2n3CCCCC2)C1` (stereo unspecified), which IC50 is on record?
A: 1.92 µM

Q: Which IC50 does the source give for `NNC(=O)c1ccc(CN2C(=O)c3cccc4cccc2c34)cc1` here?
A: 1.78 µM

Q: How did the IC50 turn out when `O=C1c2cccc3cccc(c23)C(=O)N1CCN1CCN(CC(O)COc2ccc3ccccc3c2)CC1` (stereo unspecified) was run?
A: 1.35 µM

Q: Which IC50 does the source give for `CN(C)CCCN(C(=O)c1ccc(S(=O)(=O)N(C)Cc2ccccc2)cc1)c1nc2cc3c(cc2s1)OCO3` here?
A: 2.53 µM

Q: Which IC50 does the source give for `CC1CN(S(=O)(=O)c2ccc(NC(=O)CCCCCN3C(=O)c4ccccc4C3=O)cc2)CC(C)O1` (stereo unspecified) here?
A: inactive

Q: For `CN1CCN(CCCNC(=O)c2ccc(/C=C3\Oc4ccccc4N(Cc4ccc(Cl)cc4)C3=O)cc2)CC1`, which IC50 is on record?
A: 4.33 µM

Q: Which IC50 does the source give for `O=C(C1CCN(c2ncnc3c2nc2n3CCCCC2)CC1)N1CCOCC1` here?
A: inactive

Q: How did the IC50 turn out when `O=C(NCCCN1CCN(c2ccccc2)CC1)C1CCCN(c2ncnc3c2nc2n3CCCCC2)C1` (stereo unspecified) was run?
A: 4.28 µM

Q: Which IC50 does the source give for `Cc1cc(C)c2sc(N(CCCN(C)C)C(=O)c3ccc(S(=O)(=O)N(C)Cc4ccccc4)cc3)nc2c1` here?
A: 1.51 µM

Q: Which IC50 does the source give for `Cc1ccc(-c2oc3ncnc(N)c3c2-c2ccc(C)cc2)cc1` here?
A: 2.7 µM

Q: `Cc1cccc(C)c1NC(=O)Cn1c(=O)n(CCCC(=O)NC2CCN(Cc3ccccc3)CC2)c(=O)c2ccccc21` was tested. Which IC50 did it give?
A: 1.69 µM

Q: For `O=C(CCCn1c(=O)c2ccccc2n(Cc2ccccc2F)c1=O)NC1CCN(Cc2ccccc2)CC1`, which IC50 is on record?
A: 0.45 µM

Q: How did the IC50 turn out when `CC(=O)c1ccccc1OCC(O)CN1CCN(CCN2C(=O)c3cccc4cccc(c34)C2=O)CC1` (stereo unspecified) was run?
A: 10.5 µM

Q: How did the IC50 turn out when `CCOc1ccc(NC(=O)Cn2c(=O)n(CCCC(=O)NC3CCN(Cc4ccccc4)CC3)c(=O)c3ccccc32)cc1` was run?
A: 3.06 µM

Q: For `COc1cccc2sc(N(CCCN(C)C)C(=O)c3ccc(S(=O)(=O)N4CCc5ccccc5C4)cc3)nc12`, which IC50 is on record?
A: 1.85 µM

Q: For `Cc1ccccc1CN1CCC(CNC(=O)C2CCCN(c3ncnc4c3nc3n4CCCCC3)C2)CC1` (stereo unspecified), which IC50 is on record?
A: 4.69 µM

Q: For `O=C(CCCCCN1C(=O)c2ccccc2C1=O)Nc1ccc(S(=O)(=O)N2CCCCC2)cc1`, which IC50 is on record?
A: 0.47 µM

Q: How did the IC50 turn out when `Cc1cc(NC(=O)Cn2c(=O)n(CCCCC(=O)NC3CCN(Cc4ccccc4)CC3)c(=O)c3ccccc32)n[nH]1` was run?
A: 12.9 µM

Q: With `CCCCN(CC)S(=O)(=O)c1ccc(C(=O)N(CCCN(C)C)c2nc3cc(C)cc(C)c3s2)cc1` as the molecule, how does the IC50 read?
A: 6.23 µM

Q: With `COc1ccc(CCNC(=O)CCCCCN2C(=O)c3ccccc3C2=O)cc1` as the molecule, how does the IC50 read?
A: inactive

Q: Which IC50 does the source give for `CC1(C)Cc2c(sc(NC(=O)COc3ccc(Cl)cc3Cl)c2C(N)=O)C(C)(C)N1` here?
A: 1.66 µM

Q: Which IC50 does the source give for `O=C(CCCCCN1C(=O)c2ccccc2C1=O)NCc1ccco1` here?
A: 18.1 µM

Q: For `CN(C)CCCN(C(=O)c1ccc(S(=O)(=O)N2CCCCCC2)cc1)c1nc2ccc(Br)cc2s1`, which IC50 is on record?
A: 5.92 µM

Q: Which IC50 does the source give for `O=C(NCC1CCN(Cc2ccc(Cl)cc2)CC1)C1CCCN(c2ncnc3c2nc2n3CCCCC2)C1` (stereo unspecified) here?
A: 4.33 µM

Q: How did the IC50 turn out when `Cc1cc(C)cc(OCCNC(=O)CCCCCN2C(=O)c3ccccc3C2=O)c1` was run?
A: > 100 µM (inactive)
